Data on three compounds can be found in article doi:10.1101/2020.06.07.139295v2 (biorxiv, 2020).

Assay [1] addresses T1, TTLL6 (51-502) (Mus musculus, UniProt A4Q9E8).
T1 sequence (A4Q9E8 51-502): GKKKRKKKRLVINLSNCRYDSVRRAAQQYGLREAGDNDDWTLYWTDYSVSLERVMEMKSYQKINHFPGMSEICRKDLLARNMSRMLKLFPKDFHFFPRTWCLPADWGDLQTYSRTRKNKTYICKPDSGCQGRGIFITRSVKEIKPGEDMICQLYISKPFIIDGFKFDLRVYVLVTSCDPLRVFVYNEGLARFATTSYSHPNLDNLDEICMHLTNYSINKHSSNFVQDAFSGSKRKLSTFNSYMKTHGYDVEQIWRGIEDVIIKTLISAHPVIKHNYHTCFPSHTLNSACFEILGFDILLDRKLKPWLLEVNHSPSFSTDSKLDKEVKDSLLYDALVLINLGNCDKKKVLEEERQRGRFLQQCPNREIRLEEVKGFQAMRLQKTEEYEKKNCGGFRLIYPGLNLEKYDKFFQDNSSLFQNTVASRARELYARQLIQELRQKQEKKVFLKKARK
Description: [3H]-glutamate transfer to taxol-stabilized brain microtubules, filter assay. In kind it is biochemical.

In assay [2] the target is T2, TTLL6 (51-502) (Mus musculus, UniProt A4Q9E8, C179A/H362I/Q180R).
T2 sequence (A4Q9E8 51-502 C179A/Q180R/H362I): T1 sequence (A4Q9E8 51-502) with C129A, Q130R, H312I
The assay is described as above. In kind it is biochemical.

What is called IC50 is the point on the concentration scale where inhibition reaches its midpoint. A higher IC50 goes with lower potency.

Positions count from the first letter of the chain named.

In the case of `CCNC(=O)[C@H](CCP(=O)(O)CC(CCC(=O)O)C(=O)O)NC(C)=O` (mixture of isomers) [initiation analog], the IC50 against TTLL6 (51-502) [1] amounted to 6.1 µM; at TTLL6 (51-502) [2], 3.5 ± 0.2 µM.

On to `CC(=O)NC(CCC(=O)O)P(=O)(O)CC(CCC(=O)O)C(=O)O` (mixture of isomers) [α-elongation analog], for which the 50% inhibitory concentration (IC50) on TTLL6 (51-502) [1] amounted to 0.6 ± 0.05 µM; against TTLL6 (51-502) [2] it was 5.4 ± 0.8 µM.

As to `CC(=O)N[C@@H](CCP(=O)(O)CC(CCC(=O)O)C(=O)O)C(=O)O` (mixture of isomers) [γ-elongation analog], the IC50 against TTLL6 (51-502) [1] is approximately 6 µM; against TTLL6 (51-502) [2], 2.5 ± 0.1 µM.
